Measurements from PMC4104029, “Mechanism of Action of Compound-13: An α1-Selective Small Molecule Activator of AMPK” (Chemistry & Biology, 2014).

Test system: AMPK signaling in mouse primary hepatocytes
Test: AMPK signaling in primary hepatocytes, western blotting
Type: cell-based
Experimental: Figure 4 The C2 Prodrug, C13, Potently Activates AMPK in Mouse Primary Hepatocytes (A) Isolated mouse hepatocytes were incubated with vehicle or the indicated concentrations of C13 for 1 hr. AICAR (0.5 mM) was included as a positive control. Cell lysates were analyzed using western blotting with the indicated antibodies. (B) AMPKα1 or AMPKα2 complexes were immunoprecipitated from hepatocyte extracts prepared as described in (A) and assayed for kinase activity using 0.2 mM AMARA and 0.1 mM ATP. Results are expressed as the mean Pi incorporated in picomoles per minute-milligram ± SD. (C) Hepatocytes were stimulated with 30 μM C13 for the indicated times prior to harvesting, with AICAR (0.5 mM, 1 hr) as positive control. Lysates were analyzed using western blotting with the indicated antibodies. (D) Mouse hepatocytes were treated with the indicated compounds for 1 hr, and adenine nucleotide ratios were determined using capillary electrophoresis of perchloric acid extracts. (E) Mouse hepatocytes were preincubated with 30 μM STO-609 for 30 min prior to stimulation with 30 μM C13 for 1 hr or with 1 μM ionomycin for 30 min. Lysates were analyzed using western blotting with the indicated antibodies. (F) Wild-type (LKB1^+/+) or LKB1-null (LKB1^−/−) mouse embryonic fibroblasts were incubated with the indicated concentrations of C13 for 1 hr. AICAR (2 mM) was included as a positive control. Lysates were analyzed using western blotting with the indicated antibodies. Results are representative of three independent experiments. […]
Isolation of primary hepatocytes. Hepatocytes were isolated from fasted mice by collagenase digestion (Berry and Friend, 1969). Cells were seeded in M199 containing 100 U/ml penicillin G, 100 µg/ml streptomycin, 0.1 % (w/v) BSA, 10 % (v/v) FBS, 10 nM insulin, 200 nM triiodothyronine and 100 nM dexamethasone. Post attachment (3-4 h), cells were cultured overnight in M199 supplemented with antibiotics and 100 nM dexamethasone and used for experiments the following morning.
Western blotting. Cells were stimulated as indicated, rinsed with ice-cold PBS and lysed with 50 mM tris pH 7.5, 1 mM EDTA, 1 mM EGTA, 0.27 M sucrose, 1 % (w/v) Triton X-100, 20 mM glycerol-2-phosphate, 50 mM NaF, 5 mM Na4P2O7, 1 mM Na3VO4, 1 mM DTT, 0.5 mM PMSF, 1 mM benzamidine and 1 µM microcystin-LR. Lysates were clarified at 3000 g for 5 min at 4 °C and normalised using Bradford reagent and BSA as standard. Lysates (20 µg) were denatured in Laemlli buffer, separated on 7.5 % tris-glycine gels and transferred to PVDF in Towbin buffer. Membranes were blocked in 5 % (w/v) milk for 1 h at RT and incubated overnight in the indicated primary antibodies at 4 °C. Membranes were developed using HRP-conjugated antibodies and ECL reagent.
Nucleotide measurements. Cultured hepatocytes were incubated with the indicated compounds and washed with ice-cold 0.9 % (w/v) saline before extraction in 5 % perchloric acid. Precipitated material was removed by centrifugation (13,000 RPM, 3 min) and supernatant neutralised with 1:1 trioctylamine:Freon-113 (Khym, 1975). Nucleotides were separated and quantified by capillary electrophoresis using a Beckman P/ACE instrument as previously described (Hawley, et al., 2010).

## CC(C)C(=O)OCOP(=O)(OCOC(=O)C(C)C)c1ccc(C2=NOC(=O)C2)o1 [Compound C13]
30 μM
  time course of Thr172 phosphorylation: continually increased up to 2 hr
  time to maximal phosphorylation of downstream targets (ACC, Raptor, and ULK1): 45 to 60 min
30 µM, 10 mU/ml insulin, 60 min
  insulin-stimulated mTORC1 activation (phosphorylation of p70S6K and 4EBP1): suppressed
1 hr
  concentration above which Raptor and ULK1 were significantly phosphorylated: 1 to 3 µM
  concentration above which phosphorylation of ACC was evident: 0.03 to 0.1 µM
  concentration at which ACC phosphorylation appeared saturated: 1 to 3 µM
  concentration at which Thr389 p70S6K1 phosphorylation was suppressed: above 1 μM
  lowest concentration with elevation of Thr172 phosphorylation: 10 µM
